Where two headings read alike, the source gives them in different places.
How the values were obtained:
[1] = system: voltage-gated Ca^2+ channels (VGCC); experiment: Calcium channel antagonist assay (cytosolic Ca2+, Fluo-4); type: cell-based; details: SH-SY5Y cells, K+ 70 mM
Protocol: The cytosolic Ca2+ has been measured in SH-SY5Y cells. SH-SY5Y cells were maintained similarly to what was previously described56. Free cytosolic Ca2+ was measured using the fluorescent Ca2+ indicator Fluo-4/AM (Fluo-4 acetomethoxyester). SH-SY5Y cells were seeded onto 96-well black plates at a density of 10^5 cells per well, achieving confluence after 48 h. Cells were washed with Krebs-Hepes solution (KH, in mM: 144 NaCl, 5.9 KCl, 1.2 MgCl2, 2 CaCl2, 11 D-glucose, 10 HEPES, pH 7.4). Cells were loaded with 10 µM Fluo-4/AM and 0.2% pluronic acid in KH and incubated for 45 min at 37 °C in the dark. Then, cells were washed twice with KH to remove the excess of probe. Tested compounds were incubated 10 min before K+ 70 mM was applied to evoke the increment of cytosolic Ca2+. To normalize Fluo-4 signals, Triton X-100 (5%) and 1 M MnCl2 were applied to register both maximal and minimal fluorescence, respectively. The experiments were analyzed at excitation and emission wavelengths of 485 and 520 nm, respectively, and fluorescence was measured in a fluorescence microplate reader (FLUOstar Optima, BMG, Germany). Data were calculated as a percentage of Fmax - Fmin.
The blocking effect of the depolarization-induced Ca^2+ uptake was investigated in SH-SY5Y neuroblastoma cells stimulated with an extracellular concentration of K^+ 70 mM, which induces the cell Ca^2+ levels elevation by opening voltage-gated Ca^2+ channels (VGCC), monitored with the Ca^2+-sensitive fluorescent dye Fluo-4. Nimodipine was used as positive standard.

human H3 receptor = target: T1, human H3 receptor (Homo sapiens, UniProt Q9Y5N1); experiment: H3 Receptor Binding Assay (radioligand binding); details: membranes from CHO-K1 cells, [3H]-N-α-methylhistamine 1.0 nM; read-out: H3R Ki [nM] ± SEM
T1 construct: expressed in transfected cells; host or cells: CHO-K1
T1 sequence (Q9Y5N1 whole entry): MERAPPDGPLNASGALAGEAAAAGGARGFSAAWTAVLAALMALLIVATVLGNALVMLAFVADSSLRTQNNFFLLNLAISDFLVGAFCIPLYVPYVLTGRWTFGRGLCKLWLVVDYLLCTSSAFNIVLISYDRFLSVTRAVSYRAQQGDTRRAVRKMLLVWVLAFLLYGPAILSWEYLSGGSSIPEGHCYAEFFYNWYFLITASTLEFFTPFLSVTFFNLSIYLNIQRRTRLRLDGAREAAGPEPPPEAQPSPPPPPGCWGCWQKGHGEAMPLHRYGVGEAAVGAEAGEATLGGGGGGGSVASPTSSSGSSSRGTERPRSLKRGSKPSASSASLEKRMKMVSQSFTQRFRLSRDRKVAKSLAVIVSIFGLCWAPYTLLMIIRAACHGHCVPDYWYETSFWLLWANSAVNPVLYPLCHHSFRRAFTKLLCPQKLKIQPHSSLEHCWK
Protocol: 10 mM stock solutions of compounds to be tested were prepared in DMSO.
Radioligand binding was performed using membranes from CHO-K1 cells stably transfected with the human H3 receptor. All assays were carried out in duplicates. 50 µl working solution of the tested compounds, 50 µl [3H]-N-α-methylhistamine (spec. act. 82.9 Ci/mmol, final concentration 1.0 nM) and 150 µl diluted membranes (15 µg protein per well) prepared in assay buffer (50 mM Tris, pH 7.4, 5 mM MgCl2) were transferred to polypropylene 96-well microplate using 96-wells pipetting station Rainin Liquidator (MettlerToledo). […] Microplate was covered with a sealing tape, mixed and incubated for 60 minutes at 27°C. The reaction was terminated by rapid filtration through GF/B filter mate presoaked with 0.5% polyethyleneimine for 30 minutes. Five rapid washes with 300 µl 50 mM Tris buffer (4°C, pH 7.4) were performed using 96-well FilterMate harvester (PerkinElmer, USA). The filter mates were dried at 37°C in forced air fan incubator and then solid scintillator MeltiLex was melted on filter mates at 90°C for 4 minutes. Radioactivity was counted in MicroBeta2 scintillation counter (PerkinElmer). Data were fitted to a one-site curve-fitting equation with Prism 5 (GraphPad Software) and Ki values were estimated from the Cheng-Prusoff equation.

[2] = target: T2, human recombinant acetylcholinesterase (hAChE) (Homo sapiens, UniProt P22303); experiment: Cholinesterase inhibition assay (Ellman), hAChE; type: biochemical
T2 construct: purchased Sigma-Aldrich
T2 sequence (P22303 32-614): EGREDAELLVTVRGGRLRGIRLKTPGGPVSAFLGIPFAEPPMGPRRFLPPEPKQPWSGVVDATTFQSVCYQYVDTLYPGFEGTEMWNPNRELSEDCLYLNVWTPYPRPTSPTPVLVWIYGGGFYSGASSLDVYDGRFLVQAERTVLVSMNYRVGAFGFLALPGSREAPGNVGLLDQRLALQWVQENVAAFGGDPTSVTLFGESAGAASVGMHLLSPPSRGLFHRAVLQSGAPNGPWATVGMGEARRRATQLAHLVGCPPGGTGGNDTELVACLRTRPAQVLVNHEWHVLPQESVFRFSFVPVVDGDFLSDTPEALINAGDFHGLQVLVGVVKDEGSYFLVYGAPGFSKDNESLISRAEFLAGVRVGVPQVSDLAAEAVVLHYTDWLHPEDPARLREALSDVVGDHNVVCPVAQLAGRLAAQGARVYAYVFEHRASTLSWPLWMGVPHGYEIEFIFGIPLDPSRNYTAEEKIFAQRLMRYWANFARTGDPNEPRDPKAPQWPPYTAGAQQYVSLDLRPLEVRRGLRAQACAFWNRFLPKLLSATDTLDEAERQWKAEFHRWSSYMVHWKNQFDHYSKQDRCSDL
Protocol: Inhibitory activities of the test compounds against the human cholinesterases were measured using the spectrophotometric method described by Ellman et al.^4, as modified for 96-well microplates. 5,5'-Dithiobis-(2-nitrobenzoic acid) (DTNB), acetylthiocholine iodide (ATC), butyrylthiocholine iodide (BTC), and human recombinant acetylcholinesterase (hAChE) were purchased from Sigma-Aldrich. Human butyrylcholinesterase (hBuChE) isolated from human plasma was from Vivonics (Bedford, MA, USA). […] In the first step of Ellman's method 25 µL of the test compound (or mixture DMSO/water in appropriate ratio; i.e. blank samples) was incubated in 0.1 M phosphate buffer (200 µL, pH= 8.0) with DTNB (20 µL; 0.0025M) and the enzyme (20 µL; hAChE or hBuChE) in temperature 36 °C. […] All compounds were tested at screening concentration of 10 µM. Percent of inhibition was calculated from 100-(S/B)×100, where S and B were the respective enzyme activities with and without the test sample, respectively. […] All reactions were performed in triplicate. The IC50 values were calculated using nonlinear regression (GraphPad Prism 5 [GraphPad Software, San Diego California USA 5.00]) by plotting the residual enzyme activities against the applied inhibitor concentration. Tacrine was used as a reference compound.

Human recombinant GSK-3β = target: T3, Human recombinant GSK-3β (Homo sapiens, UniProt P49841); experiment: GSK-3β inhibition in vitro assay (Kinase-Glo luminescence); type: biochemical
T3 construct: purchased Millipore (Millipore Iberica S.A.U.)
T3 sequence (P49841 whole entry): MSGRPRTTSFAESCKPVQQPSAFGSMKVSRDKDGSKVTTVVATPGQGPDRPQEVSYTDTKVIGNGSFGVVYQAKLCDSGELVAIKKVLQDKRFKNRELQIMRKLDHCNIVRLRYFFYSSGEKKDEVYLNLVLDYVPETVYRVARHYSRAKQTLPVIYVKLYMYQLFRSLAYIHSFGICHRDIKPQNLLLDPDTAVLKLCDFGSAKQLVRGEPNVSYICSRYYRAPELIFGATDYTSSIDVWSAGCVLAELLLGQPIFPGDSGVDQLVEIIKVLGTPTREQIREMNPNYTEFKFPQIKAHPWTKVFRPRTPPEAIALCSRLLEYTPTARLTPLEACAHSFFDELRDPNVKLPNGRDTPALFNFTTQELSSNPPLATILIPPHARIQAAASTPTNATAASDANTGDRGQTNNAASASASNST
Protocol: Human recombinant GSK-3β, prephosphorylated polypeptide substrate and white 96-well plates were purchased from Millipore (Millipore Iberica S.A.U.). Kinase-Glo Luminescent Kinase Assay was obtained from Promega (Promega Biotech Iberica, SL). Adenosinetriphosphate (ATP) and all other reagents were from Sigma-Aldrich. Assay buffer contained 50 mM 4-(2-hydroxyethyl)-1- piperazineethanesulfonic acid (HEPES) (pH 7.5), 1 mM ethylenediaminetetraacetic acid (EDTA), 1 mM ethylene glycol tetraacetic acid (EGTA), and 15 mM magnesium acetate. The in solution experiments for GSK-3β inhibition analysis were performed by following the method developed by Baki et al.^18. In a typical assay, 10 µL of test compound (dissolved in DMSO at 1 mM concentration and diluted in advance in assay buffer to the desired concentration) and 10 µL (20 ng) of enzyme were added to each well in presence of 20 µL of assay buffer containing GSM substrate and ATP in order to reach a 25 µM and 1 µM final concentration respectively. […] After a 30 min incubation time at 30 °C, the enzymatic reaction was stopped by adding 40 µL of Kinase-Glo reagent. Glow-type luminescence was recorded after 10 min using a VictorX 3 PerkinElmer plate reader. […]. The linear regression parameters were determined and the IC50 extrapolated (GraphPad Prism 4.0, GraphPad Software Inc.).

[3] = target: T4, Human butyrylcholinesterase (hBuChE) (Homo sapiens, UniProt P06276); experiment: Cholinesterase inhibition assay (Ellman), hBuChE; type: biochemical
T4 construct: Human butyrylcholinesterase (hBuChE) isolated from human plasma was from Vivonics; purchased Vivonics (Bedford, MA, USA); host or cells: human plasma
T4 sequence (P06276 29-602): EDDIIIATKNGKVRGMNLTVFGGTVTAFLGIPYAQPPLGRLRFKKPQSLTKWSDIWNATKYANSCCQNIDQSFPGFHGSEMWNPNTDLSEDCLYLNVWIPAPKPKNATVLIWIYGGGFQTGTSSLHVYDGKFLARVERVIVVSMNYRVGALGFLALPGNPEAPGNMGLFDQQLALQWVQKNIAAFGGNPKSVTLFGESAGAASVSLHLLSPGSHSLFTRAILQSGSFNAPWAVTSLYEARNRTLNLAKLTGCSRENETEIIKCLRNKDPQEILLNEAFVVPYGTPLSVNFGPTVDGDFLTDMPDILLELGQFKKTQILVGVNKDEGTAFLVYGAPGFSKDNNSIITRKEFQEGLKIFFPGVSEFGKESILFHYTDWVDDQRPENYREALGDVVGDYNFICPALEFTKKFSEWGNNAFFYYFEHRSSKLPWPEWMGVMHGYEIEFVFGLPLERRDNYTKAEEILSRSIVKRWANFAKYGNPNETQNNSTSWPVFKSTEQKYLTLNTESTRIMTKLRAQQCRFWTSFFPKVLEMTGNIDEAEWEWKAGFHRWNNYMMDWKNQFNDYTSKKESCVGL
Protocol: Inhibitory activities of the test compounds against the human cholinesterases were measured using the spectrophotometric method described by Ellman et al.^4, as modified for 96-well microplates. 5,5'-Dithiobis-(2-nitrobenzoic acid) (DTNB), acetylthiocholine iodide (ATC), butyrylthiocholine iodide (BTC), and human recombinant acetylcholinesterase (hAChE) were purchased from Sigma-Aldrich. Human butyrylcholinesterase (hBuChE) isolated from human plasma was from Vivonics (Bedford, MA, USA). […] The stock solutions of the test compounds were prepared by dissolving in DMSO to obtain a concentration of 0.0034M. They were further diluted in water to give appropriate concentration in a well. In the first step of Ellman's method 25 µL of the test compound (or mixture DMSO/water in appropriate ratio; i.e. blank samples) was incubated in 0.1 M phosphate buffer (200 µL, pH= 8.0) with DTNB (20 µL; 0.0025M) and the enzyme (20 µL; hAChE or hBuChE) in temperature 36 °C. […] All compounds were tested at screening concentration of 10 µM. Percent of inhibition was calculated from 100-(S/B)×100, where S and B were the respective enzyme activities with and without the test sample, respectively. […] All reactions were performed in triplicate. The IC50 values were calculated using nonlinear regression (GraphPad Prism 5 [GraphPad Software, San Diego California USA 5.00]) by plotting the residual enzyme activities against the applied inhibitor concentration. Tacrine was used as a reference compound.

[4] = read-out: cholinesterases inhibition

Row | Compound | Calcium Channel % inhibition at 10µM [1] | Ki (human H3 receptor) | IC50 ([2]; read-out: hAChE IC50) | IC50 (Human recombinant GSK-3β) | IC50 [3] | IC50 (Human recombinant GSK-3β; read-out: Gsk3β IC50) | IC50 [2, 4]
1 | CCOC(=O)C1=C(C)N(CCC2CCN(Cc3ccccc3)CC2)C(=O)NC1c1ccc(OCCCCCCN2CCOCC2)cc1 (stereo not drawn) [BIGI-BIH-D9, Ethyl 1-(2-(1-benzylpiperidin-4-yl)ethyl)-6-methyl-4-(4-((6-morpholinohexyl)oxy)phenyl)-2-oxo-1,2,3,4-tetrahydropyrimidine-5-carboxylate] | 61% | 3 ± 0.4 nM | 115 ± 2 nM | 38600 nM |  |  | 
2 | CCOC(=O)C1=C(C)N(CCC2CCN(Cc3ccccc3)CC2)C(=O)NC1c1ccc(OCCCCCCN2CCCCC2)cc1 (stereo not drawn) [BIGI-BIH-D8, Ethyl 1-(2-(1-benzylpiperidin-4-yl)ethyl)-6-methyl-2-oxo-4-(4-((6-(piperidin-1-yl)hexyl)oxy)phenyl)-1,2,3,4-tetrahydropyrimidine-5-carboxylate] | 60% | 0.2 ± 0.02 nM | 86 ± 2 nM |  | 1250 ± 46 nM | 68200 nM | 
3 | CCOC(=O)C1=C(C)N(CCC2CCN(Cc3ccccc3)CC2)C(=O)NC1c1ccc(OCCCCCN2CCCCC2)cc1 (stereo not drawn) [BIGI-BIH-D5, Ethyl 1-(2-(1-benzylpiperidin-4-yl)ethyl)-6-methyl-2-oxo-4-(4-((5-(piperidin-1-yl)pentyl)oxy)phenyl)-1,2,3,4-tetrahydropyrimidine-5-carboxylate] | 34% | 0.3 ± 0.07 nM | 67 ± 1 nM |  | 1280 ± 72 nM | 26300 nM | 
4 | CCOC(=O)C1=C(C)N(CCC2CCN(Cc3ccccc3)CC2)C(=O)NC1c1ccc(OCCCCCN2CCOCC2)cc1 (stereo not drawn) [BIGI-BIH-D6, Ethyl 1-(2-(1-benzylpiperidin-4-yl)ethyl)-6-methyl-4-(4-((5-morpholinopentyl)oxy)phenyl)-2-oxo-1,2,3,4-tetrahydropyrimidine-5-carboxylate] | 39% | 0.6 ± 0.05 nM | 115 ± 2 nM |  |  | 56600 nM | 
5 | COCCOC(=O)C1=C(C)NC(C)=C(C(=O)OC(C)C)C1c1cccc([N+](=O)[O-])c1 (stereo not drawn) [Nimodipine, reference compound] | 38% |  |  |  |  |  | 
6 | CCOC(=O)C1=C(C)N(CCC2CCN(Cc3ccccc3)CC2)C(=O)NC1c1ccc(OCCCCCCN2CCCC2)cc1 (stereo not drawn) [BIGI-BIH-D7, Ethyl 1-(2-(1-benzylpiperidin-4-yl)ethyl)-6-methyl-2-oxo-4-(4-((6-(pyrrolidin-1-yl)hexyl)oxy)phenyl)-1,2,3,4-tetrahydropyrimidine-5-carboxylate] | 47% | 0.2 ± 0.04 nM | 89 ± 2 nM |  | 768 ± 13 nM | 30600 nM | 
7 | CCOC(=O)C1=C(C)N(CCC2CCN(Cc3ccccc3)CC2)C(=O)NC1c1ccc(OCCCCN2CCCC2)cc1 (stereo not drawn) [BIGI-BIH-D1, Ethyl 1-(2-(1-benzylpiperidin-4-yl)ethyl)-6-methyl-2-oxo-4-(4-(4-(pyrrolidin-1-yl)butoxy)phenyl)-1,2,3,4-tetrahydropyrimidine-5-carboxylate] | 5% | 2.8 ± 0.2 nM | 63 ± 1 nM |  | 1720 ± 119 nM | 59800 nM | 63 nM
8 | CCOC(=O)C1=C(C)N(CCC2CCN(Cc3ccccc3)CC2)C(=O)NC1c1ccc(OCCCCCN2CCCC2)cc1 (stereo not drawn) [BIGI-BIH-D4, Ethyl 1-(2-(1-benzylpiperidin-4-yl)ethyl)-6-methyl-2-oxo-4-(4-((5-(pyrrolidin-1-yl)pentyl)oxy)phenyl)-1,2,3,4-tetrahydropyrimidine-5-carboxylate] | 22% | 0.5 ± 0.05 nM | 88 ± 2 nM | 60500 nM | 1390 ± 66 nM |  | 
9 | CCOC(=O)C1=C(C)N(CCC2CCN(Cc3ccccc3)CC2)C(=O)NC1c1ccc(OCCCCN2CCOCC2)cc1 (stereo not drawn) [BIGI-BIH-D3, Ethyl 1-(2-(1-benzylpiperidin-4-yl)ethyl)-6-methyl-4-(4-(4-morpholinobutoxy)phenyl)-2-oxo-1,2,3,4-tetrahydropyrimidine-5-carboxylate] | 23% | 12 ± 0.5 nM | 123 ± 2 nM |  |  | 126000 nM | 
10 | CCOC(=O)C1=C(C)N(CCC2CCN(Cc3ccccc3)CC2)C(=O)NC1c1ccc(OCCCCN2CCCCC2)cc1 (stereo not drawn) [BIGI-BIH-D2, Ethyl 1-(2-(1-benzylpiperidin-4-yl)ethyl)-6-methyl-2-oxo-4-(4-(4-(piperidin-1-yl)butoxy)phenyl)-1,2,3,4-tetrahydropyrimidine-5-carboxylate] | 13% | 0.6 ± 0.08 nM | 67 ± 1 nM |  | 928 ± 32 nM | 106000 nM | 123 nM

Source: patent EP4168396B1, “COMPOUNDS FOR THE TREATMENT OF NEURODEGENERATIVE DISEASES” (Universite De Franche Comte, priority 2020, dated 2021)
